Results: patent US11952365B2, “Anti-viral compounds” (Aligos Therapeutics, Inc., priority 2020, dated 2024)
Where two headings read alike, the source gives them in different places.

How the values were obtained:
[1] = test system: SARS-CoV-2-GHB-03021/2020; assay: microbe, parasite or virus in culture; format: cell-based; settings: Severe acute respiratory syndrome coronavirus 2, Vero C1008, 96 h; read-out: VeroE6 + CP (EC50)
HRV3C = HRV3C (Human rhinovirus 14, UniProt P03303); assay: HRV3C protease assay (duplex, SAMDI-MS); format: biochemical, HRV
Summary of the method: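 Compounds are preincubated 30 min with the protease pair before substrate addition, and cleavage proceeds 30 min at room temperature. Product peptides are measured by SAMDI-MS relative to internal standards, with IC50 obtained from a four-parameter fit.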

[2] = Cytotoxicity plates without OC43 virus (cell-titer-glo); format: cell-based, human; settings: human; HeLa cells without OC43 virus, class symbols
Summary of the method: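 Run as a virus-free counterpart of the OC43 cytopathic-effect assay. Attached HeLa cells received compound dilutions in EMEM with 2% FBS and were kept 6 days at 33 °C. Cell viability was then measured by CellTiter-Glo luminescence.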

human cathepsin L = molecular target: T1, human cathepsin L (Homo sapiens, UniProt P07711); assay: cathepsin L assay; format: biochemical; settings: 10 pM human cathepsin L, Z-FR-AMC 2 μM
T1 construct: purchased R&D Systems
Summary of the method: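 Reactions began by adding 2 μM (final) Z-FR-AMC substrate to 10 pM human cathepsin L that had been preincubated 30 min with inhibitor. Kinetic AMC fluorescence at 355/460 nm over 30 min at 2-min intervals; four-parameter fitting gave IC50 values.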

[3] = test system: SARS-CoV-2-GHB-03021/2020; assay: SARS-CoV-2 Infection Model in Huh7 Cells; format: cell-based; settings: Severe acute respiratory syndrome coronavirus 2, Huh-7, 96 h, SARS-CoV-2, day 4 p.i., MTS
[4] = test system: human beta-coronavirus OC43; assay: microbe, parasite or virus in culture; format: cell-based; settings: Betacoronavirus 1, OC43, HeLa, 144 h
3CLpro = 3CLpro (Severe acute respiratory syndrome coronavirus 2, UniProt P0DTD1); assay: SARS-CoV-2 3CLpro protease assay (duplex, SAMDI-MS); format: biochemical; design: For the duplex assay, 3CLpro and HRV3C was added; settings: 3CLpro, 30 mins preincubation, class symbols; read-out: SARS-Cov-2 IC50
in vitro [5] = settings: human
in vitro [6] = settings: African green monkey, VeroE6 + CP (CC50), Vero E6-eGFP cells with CP-100356, absence of virus, MTS
[7] = HRV3C, 30 mins preincubation, bound, read-out: HRV IC50
[8] = OC43 in HeLa cells, 6 days at 33° C., class symbols, read-out: EC50
[9] = HRV3C, 30 mins preincubation, class symbols, read-out: HRV IC50
[10] = HRV IC50, HRV3C, 30 mins preincubation, class symbols

Row | Structure (SMILES) | EC50 [1] | IC50 (HRV3C; [7]) | CC50 at 6 days [2] | IC50 (human cathepsin L; class symbols) | EC50 ([3]; class symbols) | EC50 [4, 8] | IC50 (3CLpro) | CC50 (in vitro [5]) | CC50 (in vitro [6]; class symbols) | IC50 (HRV3C; [9]) | IC50 (HRV3C; HRV3C, printed bound without unit, read-out: HRV IC50) | CC50 (in vitro [6]; numeric bounds) | IC50 (human cathepsin L; bound) | IC50 (HRV3C; [10]) | EC50 [4] | EC50 ([3]; numeric bounds) | EC50 ([4]; OC43 in HeLa cells, 6 days at 33° C., bound, read-out: EC50)
1 | O=C1NCC[C@H]1C[C@H](NC(=O)[C@@H]1[C@H]2CCC[C@H]2CN1C(=O)c1cc2c(C(F)(F)F)cccc2[nH]1)C(=O)CO [Compound 63, (1S,3aR,6aS)—N-[(2S)-4-hydroxy-3-oxo-1-[(3S)-2-oxopyrrolidin-3-yl]butan-2-yl]-2-[4-(trifluoromethyl)-1H-indole-2-carbonyl]-hexahydro-1H-cyclopenta[c]pyrrole-1-carboxamide] | < 1 µM | > 10 µM | > 10 µM | ≥ 10 µM | < 1 µM | 0.1 to 1 µM | 0.02 to 0.2 µM | > 10 µM | > 10 µM |  |  |  |  |  |  |  | 
2 | O=C1NCC[C@H]1C[C@H](NC(=O)[C@@H]1[C@H]2CCC[C@H]2CN1C(=O)c1cc2c(OC(F)(F)F)cccc2[nH]1)C(=O)CO [Compound 64, (1S,3aR,6aS)—N-[(2S)-4-hydroxy-3-oxo-1-[(3S)-2-oxopyrrolidin-3-yl]butan-2-yl]-2-[4-(trifluoromethoxy)-1H-indole-2-carbonyl]-hexahydro-1H-cyclopenta[c]pyrrole-1-carboxamide] | < 1 µM | > 10 µM | > 10 µM | ≥ 10 µM | < 1 µM | < 0.1 µM | 0.02 to 0.2 µM | > 10 µM | > 10 µM |  |  |  |  |  |  |  | 
3 | COc1ccc(F)c2[nH]c(C(=O)N3C[C@@H]4CCC[C@@H]4[C@H]3C(=O)N[C@@H](C[C@@H]3CCNC3=O)C(=O)CO)cc12 [Compound 65, (1S,3aR,6aS)-2-(7-fluoro-4-methoxy-1H-indole-2-carbonyl)-N-[(2S)-4-hydroxy-3-oxo-1-[(3S)-2-oxopyrrolidin-3-yl]butan-2-yl]-hexahydro-1H-cyclopenta[c]pyrrole-1-carboxamide] | < 1 µM |  | > 10 µM | ≥ 10 µM | < 1 µM | 0.1 to 1 µM | < 0.02 µM | > 100 µM | > 10 µM | 0.2 to 2 µM |  |  |  |  |  |  | 
4 | COc1cccc2[nH]c(C(=O)N3C[C@@H]4CCC[C@@H]4[C@H]3C(=O)N[C@@H](C[C@H]3CC(C)(C)NC3=O)C(=O)CO)cc12 [Compound 70_2] | 10 to 100 µM |  | > 10 µM | ≥ 10 µM | 10 to 100 µM | 1 to 10 µM | 0.2 to 2 µM | > 50 µM |  |  | > 10 µM | > 50 µM |  |  |  |  | 
5 | COc1cccc2sc(C(=O)N3C[C@@H]4CCC[C@@H]4[C@H]3C(=O)N[C@@H](C[C@@H]3CCNC3=O)C(=O)CO)cc12 [Compound 72, (1S,3aR,6aS)—N-[(2S)-4-hydroxy-3-oxo-1-[(3S)-2-oxopyrrolidin-3-yl]butan-2-yl]-2-(4-methoxy-1-benzothiophene-2-carbonyl)-hexahydro-1H-cyclopenta[c]pyrrole-1-carboxamide] | 1 to 10 µM | > 10 µM | > 10 µM |  | 1 to 10 µM | 0.1 to 1 µM | 0.2 to 2 µM | > 100 µM |  |  |  | > 100 µM | > 3.3 µM |  |  |  | 
6 | O=C1NCC[C@H]1C[C@H](NC(=O)[C@@H]1[C@H]2CCC[C@H]2CN1C(=O)c1cc(-c2ccccc2)c[nH]1)C(=O)CO [Compound 79, (1S,3aR,6aS)—N—((S)-4-hydroxy-3-oxo-1-((S)-2-oxopyrrolidin-3-yl)butan-2-yl)-2-(4-phenyl-1H-pyrrole-2-carbonyl)octahydrocyclopenta[c]pyrrole-1-carboxamide] | 1 to 10 µM |  | > 10 µM | ≥ 10 µM | 1 to 10 µM |  | 0.02 to 0.2 µM | > 50 µM |  |  |  | > 50 µM |  | 2 to 20 µM | 0.1 to 1 µM |  | 
7 | O=C1NCC[C@H]1C[C@H](NC(=O)[C@@H]1[C@H]2CCC[C@H]2CN1C(=O)c1cc2ccsc2[nH]1)C(=O)CO [Compound 80, (1S,3aR,6aS)—N-[(2S)-4-hydroxy-3-oxo-1-[(3S)-2-oxopyrrolidin-3-yl]butan-2-yl]-2-{6H-thieno[2,3-b]pyrrole-5-carbonyl}-hexahydro-1H-cyclopenta[c]pyrrole-1-carboxamide] | 1 to 10 µM |  | > 10 µM | ≥ 10 µM | 1 to 10 µM |  | 0.02 to 0.2 µM | > 50 µM |  |  |  | > 50 µM |  | 2 to 20 µM | 1 to 10 µM |  | 
8 | COc1ccc2[nH]c(C(=O)N3C[C@@H]4CCC[C@@H]4[C@H]3C(=O)N[C@@H](C[C@@H]3CCNC3=O)C(=O)CO)cc2c1OC [Compound 81, (1S,3aR,6aS)-2-(4,5-dimethoxy-1H-indole-2-carbonyl)-N-[(2S)-4-hydroxy-3-oxo-1-[(3S)-2-oxopyrrolidin-3-yl]butan-2-yl]-hexahydro-1H-cyclopenta[c]pyrrole-1-carboxamide] | 1 to 10 µM |  | > 10 µM | ≥ 10 µM | 10 to 100 µM | 1 to 10 µM | 0.02 to 0.2 µM | > 50 µM |  | 2 to 20 µM |  | > 50 µM |  |  |  |  | 
9 | O=C1NCC[C@H]1C[C@H](NC(=O)[C@@H]1[C@H]2CCC[C@H]2CN1C(=O)c1cc(S(=O)(=O)c2ccccc2)c[nH]1)C(=O)CO [Compound 82, (1S,3aR,6aS)-2-[4-(benzenesulfonyl)-1H-pyrrole-2-carbonyl]-N-[(2S)-4-hydroxy-3-oxo-1-[(3S)-2-oxopyrrolidin-3-yl]butan-2-yl]-hexahydro-1H-cyclopenta[c]pyrrole-1-carboxamide] | 10 to 100 µM |  | > 10 µM | ≥ 10 µM |  |  | 0.02 to 0.2 µM | > 50 µM |  | 2 to 20 µM |  | > 50 µM |  |  |  | > 50 µM | > 10 µM
10 | O=C1NCC[C@H]1C[C@H](NC(=O)[C@@H]1[C@H]2CCC[C@H]2CN1C(=O)c1cc2c([nH]1)CCCC2)C(=O)CO [Compound 83, (1S,3aR,6aS)—N-[(2S)-4-hydroxy-3-oxo-1-[(3S)-2-oxopyrrolidin-3-yl]butan-2-yl]-2-(4,5,6,7-tetrahydro-1H-indole-2-carbonyl)-hexahydro-1H-cyclopenta[c]pyrrole-1-carboxamide] | < 1 µM | > 10 µM | > 10 µM | ≥ 10 µM | < 1 µM | 0.1 to 1 µM | 0.02 to 0.2 µM | > 50 µM |  |  |  | > 50 µM |  |  |  |  | 
11 | O=C(c1ccccc1)c1c[nH]c(C(=O)N2C[C@@H]3CCC[C@@H]3[C@H]2C(=O)N[C@@H](C[C@@H]2CCNC2=O)C(=O)CO)c1 [Compound 84, (1S,3aR,6aS)-2-(4-benzoyl-1H-pyrrole-2-carbonyl)-N-[(2S)-4-hydroxy-3-oxo-1-[(3S)-2-oxopyrrolidin-3-yl]butan-2-yl]-hexahydro-1H-cyclopenta[c]pyrrole-1-carboxamide] | 1 to 10 µM |  | > 10 µM | ≥ 10 µM |  | 1 to 10 µM | 0.02 to 0.2 µM | > 50 µM |  | 2 to 20 µM |  | > 50 µM |  |  |  | > 50 µM | 
12 | CCOC(=O)c1cc(C(=O)N2C[C@@H]3CCC[C@@H]3[C@H]2C(=O)N[C@@H](C[C@@H]2CCNC2=O)C(=O)CO)[nH]c1C [Compound 85, ethyl 5-[(1S,3aR,6aS)-1-{[(2S)-4-hydroxy-3-oxo-1-[(3S)-2-oxopyrrolidin-3-yl]butan-2-yl]carbamoyl}-hexahydro-1H-cyclopenta[c]pyrrole-2-carbonyl]-2-methyl-1H-pyrrole-3-carboxylate] | 1 to 10 µM |  | > 10 µM | ≥ 10 µM | 10 to 100 µM | 1 to 10 µM | 0.02 to 0.2 µM | > 50 µM |  | 2 to 20 µM |  | > 50 µM |  |  |  |  | 
